Key:
[1] = Pharmacokinetics after intravenous and oral administration in rats; assay type: in vivo; conditions: for Clearance (CL) after iv dosing / AUC(0-t) / half-life / Vd: dose 1 mg/kg, iv dosing; for F: oral bioavailability; for AUC(0-t) / half-life / Vd: rat, plasma; for Vd: read-out: Vss
Description: The LC/MS/MS system used in the analysis consists of an Agilent 1200 Series vacuum degasser, binary pump, well-plate autosampler, thermostatted column compartment, the Agilent G6430 Triple Quadrupole Mass Spectrometer with an electrosprayionization (ESI) source. Quantitative analysis was carried out using MRM mode. The parameters for MRM transitions are in the Table A.
An Agilent XDB-C18, 2.1×30 mm, 3.5 μM column was used for the analysis. 5 μL of the samples were injected. Analysis condition: The mobile phase was 0.1% formic acid in water (A) and 0.1% formic acid in methanol (B). The flow rate was 0.4 mL/min. And the gradient of Mobile phase was in the Table B.
Alternatively, an Agilent 6330 series LC/MS/MS spectrometer equipped with G1312A binary pumps, a G1367A autosampler and a G1314C UV detector were used in the analysis. An ESI source was used on the LC/MS/MS spectrometer. The analysis was done in positive ion mode as appropriate and the MRM transition for each analyte was optimized using standard solution. A Capcell MP-C18 100×4.6 mm I.D., […] column (Phenomenex, Torrance, Calif., USA) was used during the analysis. The mobile phase was 5 mM ammonia acetate, 0.1% MeOH in water (A): 5 mM ammonia acetate, 0.1% MeOH in acetonitrile (B) (70/30, v/v). The flow rate was 0.6 mL/min. Column was maintained at ambient temperature. 20 μL of the samples were injected.
The compounds disclosed herein are assessed in pharmacokinetic studies in mice, rats, dogs or monkeys. The compounds are administered as a water solution, 2% HPMC+1% TWEEN®80 in water solution, 5% DMSO+5% solutol in saline, 4% MC suspension or capsule. For the intravenous administration, the animals are generally given at 0.5, 1 or 2 mg/kg dose. For the oral (p.o.) dosing, mice and rats are generally given 0.5, 1, 5 or 10 mg/kg dose, and dogs and monkeys are generally given 10 mg/kg dose. The blood samples (0.3 mL) are drawn at 0.25, 0.5, 1.0, 2.0, 3.0, 4.0, 6.0, 8.0, 12 and 24 h time points or 0.083, 0.25, 0.5, 1.0, 2.0, 4.0, 6.0, 8.0 and 24 h time points and centrifuged at 3,000 or 4000 rpm for 2 to 10 min. The plasma solutions are collected, and stored at −20° C. or −70° C. until analyzed by LC/MS/MS as described above.

[2] = Compound stability in rat liver microsomes; assay type: in vitro ADME; conditions: pH 7.4; for half-life at 5 μM: rat liver microsomes 0.5 mg protein/mL, compound 5 μM, NADPH, 37° C., read-out: Rat T1/2; for CLint scaled at 5 μM: rat liver microsomes, in vivo CLint extrapolated
Description: (§1) Human or rat liver microsomes incubations were conducted in duplicate in polypropylene tubes. The typical incubation mixtures consisted of human or rat liver microsomes (0.5 mg protein/mL), compounds of interest (5 μM) and NADPH (1.0 mM) in a total volume of 200 μL potassium phosphate buffer (PBS, 100 mM, pH 7.4). Compounds were dissolved in DMSO and diluted with PBS such that the final concentration of DMSO was 0.05%. The enzymatic reactions were commenced with the addition of protein after a 3-min preincubation and incubated in a water bath open to the air at 37° C. Reactions were terminated at various time points (0, 5, 10, 15, 30, 60 min) by adding equal volume of ice-cold acetonitrile. The samples were stored at −80° C. until LC/MS/MS assays.
(§2) The concentrations of compounds in the incubation mixtures of human or rat liver microsomes were determined by a LC/MS/MS method. The ranges of the linearity in the concentration range were determined for each tested compounds.
(§3) A parallel incubation was performed using denatured microsomes as the negative control, and reactions were terminated at various time points (0, 15, 60 min) after incubation at 37° C.
(§4) Dextromethorphan (70 μM) was selected as the positive control, and reactions were terminated at various time points (0, 5, 10, 15, 30, 60 min) after incubation at 37° C. Both positive and negative control samples were included in each assay to ensure the integrity of the microsomal incubation system.
(§5) The concentrations of compounds in human or rat liver microsome incubations were plotted as a percentage of the relevant zero time point control for each reaction. The in vivo CLint were extrapolated (ref.: Naritomi, Y.; Terashita, S.; Kimura, S.; Suzuki, A.; Kagayama, A.; and Sugiyama, Y.; Prediction of human hepatic clearance from in vivo animal experiments and in vitro metabolic studies with liver microsomes from animals and humans. Drug Metab. Dispos., 2001, 29: 1316-1324).

[3] = Compound stability in human liver microsomes; assay type: in vitro ADME; conditions: pH 7.4; for half-life at 5 μM: human liver microsomes 0.5 mg protein/mL, compound 5 μM, NADPH, 37° C., read-out: Human T1/2; for CLint scaled at 5 μM: human liver microsomes, in vivo CLint extrapolated
Description: as §1, §2, §3, §4, §5

Clearance (CL) after iv dosing [1] [mL/min/kg]	F [1] [%]	AUC(0-t) [1] [ng·h/mL]	half-life [1] [min]	Vd [1] [L/kg]	half-life at 5 μM [2] [min]	CLint scaled at 5 μM [2] [mL/min/kg]	half-life at 5 μM [3] [min]	CLint scaled at 5 μM [3] [mL/min/kg]	Structure (SMILES)
42	52.4	398	13.8	0.55	116	21.4	–	–	CNC(=O)N[C@H]1COC2C1OC[C@H]2Nc1nc(Nc2cnn(C)c2)ncc1Cl (stereo partly drawn) [Ex. 1, 1-((3S,6R)-6-((5-chloro-2-((1-methyl-1H-pyrazol-4-yl)amino)pyrimidin-4-yl)amino)hexahydrofuro[3,2-b]furan-3-yl)-3-methylurea]
38	90.1	452	37.2	1.87	68	36.5	57.3	30.4	Cn1cc(Nc2ncc(Cl)c(N[C@@H]3COC4C3OC[C@@H]4NS(=O)(=O)c3ccc(F)cc3)n2)cn1 (stereo partly drawn) [Ex. 8, N-((3S,6R)-6-((5-chloro-2-((1-methyl-1H-pyrazol-4-yl)amino)pyrimidin-4-yl)amino)hexahydrofuro[3,2-b]furan-3-yl)-4-fluorobenzenesulfonamide]
–	64.6	792	636	27.1	–	–	–	–	Cn1cc(Nc2ncc(Cl)c(N[C@@H]3COC4C3OC[C@@H]4N3CCOC3=O)n2)cn1 (stereo partly drawn) [Ex. 9, 3-((3S,6R)-6-((5-chloro-2-((1-methyl-1H-pyrazol-4-yl)amino)pyrimidin-4-yl)amino)hexahydrofuro[3,2-b]furan-3-yl)oxazolidin-2-one]
–	40.0	542	335	23.5	121	20.6	44.1	39.4	Cn1cc(Nc2ncc(Cl)c(N[C@@H]3COC4C3OC[C@@H]4NS(=O)(=O)N3CCOCC3)n2)cn1 (stereo partly drawn) [Ex. 11, N-((3S,6R)-6-((5-chloro-2-((1-methyl-1H-pyrazol-4-yl)amino)pyrimidin-4-yl)amino)hexahydrofuro[3,2-b]furan-3-yl)morpholine-4-sulfonamide]
59.8	75.2	363	40.2	1.98	105	23.7	272	6.39	Cn1cc(Nc2ncc(Cl)c(N[C@@H]3COC4C3OC[C@@H]4N3CCCS3(=O)=O)n2)cn1 (stereo partly drawn) [Ex. 12, 2-((3S,6R)-6-((5-chloro-2-((1-methyl-1H-pyrazol-4-yl)amino)pyrimidin-4-yl)amino)hexahydrofuro[3,2-b]furan-3-yl)isothiazolidine 1,1-dioxide]
10.2	96.9	1630	65.4	1.06	104	23.8	289	6.01	Cn1cc(Nc2ncc(Cl)c(N[C@@H]3COC4C3OC[C@@H]4N3CCCC3=O)n2)cn1 (stereo partly drawn) [Ex. 22, 1-((3S,6R)-6-((5-chloro-2-((1-methyl-1H-pyrazol-4-yl)amino)pyrimidin-4-yl)amino)hexahydrofuro[3,2-b]furan-3-yl)pyrrolidin-2-one]
7	67.5	2440	27	0.26	26.6	93.4	60	29	Cn1cc(Nc2ncc(Cl)c(N[C@@H]3COC4C3OC[C@@H]4Nc3ccc(C#N)cn3)n2)cn1 (stereo partly drawn) [Ex. 23, 6-(((3S,6R)-6-((5-chloro-2-((1-methyl-1H-pyrazol-4-yl)amino)pyrimidin-4-yl)amino)hexahydrofuro[3,2-b]furan-3-yl)amino)nicotinonitrile]
29.3	127.3	567	42	1.4	78.6	31.6	25.6	68	Cn1cc(Nc2ncc(Cl)c(N[C@@H]3COC4C3OC[C@@H]4NS(=O)(=O)C(C)(C)C)n2)cn1 (stereo partly drawn) [Ex. 24, N-((3S,6R)-6-((5-chloro-2-((1-methyl-1H-pyrazol-4-yl)amino)pyrimidin-4-yl)amino)hexahydrofuro[3,2-b]furan-3-yl)-2-methylpropane-2-sulfonamide]
–	–	–	–	–	441	5.6	51.1	34	O=S(=O)(CC1CC1)N[C@H]1COC2C1OC[C@H]2Nc1nc(Nc2cnn(C3CCNCC3)c2)ncc1Cl (stereo partly drawn) [Ex. 35, N-((3S,6R)-6-((5-chloro-2-((1-(piperidin-4-yl)-1H-pyrazol-4-yl)amino)pyrimidin-4-yl)amino)hexahydrofuro[3,2-b]furan-3-yl)-1-cyclopropylmethanesulfonamide]
34.2	69.5	491	32.4	0.86	34.9	71.1	26.6	65.5	CC(CF)CS(=O)(=O)N[C@H]1COC2C1OC[C@H]2Nc1nc(Nc2cnn(C)c2)ncc1Cl (stereo partly drawn) [Ex. 37, N-((3S,6R)-6-((5-chloro-2-((1-methyl-1H-pyrazol-4-yl)amino)pyrimidin-4-yl)amino)hexahydrofuro[3,2-b]furan-3-yl)-3-fluoro-2-methylpropane-1-sulfonamide]
35.8	48.7	464	33	1.07	–	–	–	–	Cn1cc(Nc2ncc(Cl)c(N[C@@H]3COC4C3OC[C@@H]4NS(=O)(=O)CC3CC(F)C3)n2)cn1 (stereo partly drawn) [Ex. 39, N-((3S,6R)-6-((5-chloro-2-((1-methyl-1H-pyrazol-4-yl)amino)pyrimidin-4-yl)amino)hexahydrofuro[3,2-b]furan-3-yl)-1-(3-fluorocyclobutyl)methanesulfonamide]
–	–	–	–	–	310	8	837	2.1	CC(O)CS(=O)(=O)N[C@H]1COC2C1OC[C@H]2Nc1nc(Nc2cnn(C)c2)ncc1Cl (stereo partly drawn) [Ex. 44, N-((3S,6R)-6-((5-chloro-2-((1-methyl-1H-pyrazol-4-yl)amino)pyrimidin-4-yl)amino)hexahydrofuro[3,2-b]furan-3-yl)-2-hydroxypropane-1-sulfonamide]
